Some test systems named below: UO-31 renal; LOX IMVI melanoma; OVCAR-8 ovarian; UACC-62 melanoma; SNB-75 CNS; UACC-257 melanoma; ACHN renal; SK-OV-3 ovarian; SF-268 CNS; SF-295 CNS; NCI-H23 lung; SK-MEL-2 melanoma; KM12 colon; M14 melanoma; EKVX NSCLC; MOLT-4 leukemia; SK-MEL-28 melanoma; MCF7 breast.
Test in all cases: NCI anticancer screen, dose series, 48 h

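The compound was tested at five concentrations on cells cultured in 96-well plates, with a 48-hour exposure period. TGI: total growth inhibition.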 Where only a bound is given, the exact number is not on record here.

On to `COC(=O)C(C(=O)C(=O)Nc1c(Cl)cc([N+](=O)[O-])cc1Cl)c1nc2cc(C)c(C)cc2[nH]c1=O` (stereo not given), for which the TGI with UO-31 renal, in the assay on LOX IMVI melanoma, with OVCAR-8 ovarian, with UACC-62 melanoma, in the assay on SNB-75 CNS and with UACC-257 melanoma was > 100 µM in each case. Further, the TGI in the assay with ACHN renal, in the assay on SK-OV-3 ovarian, in the assay on SF-268 CNS, in the assay on SF-295 CNS, in the assay on NCI-H23 lung and with SK-MEL-2 melanoma was > 100 µM in each case. Besides, the TGI with KM12 colon, with M14 melanoma, with EKVX NSCLC and with MOLT-4 leukemia was > 100 µM in each case.

Take `O=S1(=O)COc2ccccc2-c2ncncc21`: the TGI with UO-31 renal, with LOX IMVI melanoma, in the assay with OVCAR-8 ovarian, in the assay with UACC-62 melanoma, in the assay on SNB-75 CNS and in the assay on UACC-257 melanoma was > 100 µM throughout. The TGI with ACHN renal, in the assay on SK-OV-3 ovarian, in the assay with SF-268 CNS, in the assay on SF-295 CNS, in the assay with NCI-H23 lung and with KM12 colon was > 100 µM each time. The TGI in the assay with M14 melanoma, in the assay on EKVX NSCLC, with SK-MEL-28 melanoma and with MOLT-4 leukemia was > 100 µM throughout.

Take `CC1=NN(c2cccc(Cl)c2)C(=N/c2nc3ccccc3s2)/C1=C\C=C\c1ccccc1`: the TGI in the assay with UO-31 renal is > 100 µM; in the assay on LOX IMVI melanoma, > 100 µM; in the assay on OVCAR-8 ovarian, > 100 µM; in the assay with MCF7 breast, > 100 µM; in the assay with UACC-257 melanoma, > 100 µM; in the assay on ACHN renal, 88.2 µM. Further, the TGI in the assay on SK-OV-3 ovarian, in the assay on SF-268 CNS, in the assay on SF-295 CNS, with NCI-H23 lung, with KM12 colon and in the assay with M14 melanoma was > 100 µM each time. The TGI with EKVX NSCLC was > 100 µM; in the assay with SK-MEL-28 melanoma it was > 100 µM; with MOLT-4 leukemia, 3.48 µM.

In the case of `CSc1sc(C)cc1-c1nsc(=O)o1`, the TGI in the assay with UO-31 renal, with LOX IMVI melanoma, with MCF7 breast, in the assay with UACC-62 melanoma, in the assay with UACC-257 melanoma and in the assay with ACHN renal was > 100 µM throughout. For the same molecule, the TGI with SF-268 CNS, with SF-295 CNS, in the assay on NCI-H23 lung, with KM12 colon, in the assay on M14 melanoma and in the assay with EKVX NSCLC was > 100 µM each time. Besides, the TGI in the assay on SK-MEL-28 melanoma and with MOLT-4 leukemia was > 100 µM in each case.

For the molecule `O=C(CC(=O)C(=O)CC(=O)OCc1ccccc1)OCc1ccccc1`, the TGI is 75.7 µM in the assay on UO-31 renal; > 100 µM in the assay with OVCAR-8 ovarian; > 100 µM with UACC-62 melanoma; > 100 µM with SNB-75 CNS; > 100 µM with SK-OV-3 ovarian; > 100 µM in the assay on SF-268 CNS. For the same molecule, the TGI in the assay with NCI-H23 lung, in the assay with SK-MEL-2 melanoma, in the assay with M14 melanoma, in the assay on EKVX NSCLC, in the assay on SK-MEL-28 melanoma and with MOLT-4 leukemia was > 100 µM in each case.

Regarding `COc1ccc(NC(=O)CSc2nnc(Cc3ccccc3)o2)cc1`, the TGI with UO-31 renal, in the assay with LOX IMVI melanoma, in the assay on OVCAR-8 ovarian, with UACC-62 melanoma, in the assay on SNB-75 CNS and with UACC-257 melanoma was > 100 µM each time. Also, the TGI with ACHN renal, in the assay with SK-OV-3 ovarian, with SF-268 CNS, in the assay with SF-295 CNS, in the assay on NCI-H23 lung and in the assay on SK-MEL-2 melanoma was > 100 µM in each case. Also, the TGI in the assay on KM12 colon, in the assay with M14 melanoma, with SK-MEL-28 melanoma and with MOLT-4 leukemia was > 100 µM in each case.

As to `CC(=O)OC[C@@]12CC[C@H]3C(C)(C)CCC[C@]3(C)[C@H]1C[C@@H](C1=CC(=O)O[C@H]1O)O2`, the TGI worked out at 4.95 µM with UO-31 renal; 3.42 µM in the assay with LOX IMVI melanoma; 13.7 µM in the assay on OVCAR-8 ovarian; 11.2 µM in the assay with MCF7 breast; 4.74 µM in the assay on UACC-62 melanoma; 9.26 µM with UACC-257 melanoma. Moreover, the TGI turned out to be 5.12 µM in the assay on ACHN renal; 28.1 µM with SF-268 CNS; 21.3 µM in the assay with SF-295 CNS; 5.01 µM with NCI-H23 lung; 4.37 µM with SK-MEL-2 melanoma; 35.8 µM in the assay on KM12 colon. The TGI in the assay on M14 melanoma was 7.65 µM; with EKVX NSCLC, 24.3 µM; with SK-MEL-28 melanoma, 4.36 µM; with MOLT-4 leukemia, 6.23 µM.

These data come from PubChem BioAssay (NCI).
